Converted amounts (≈) assume the structure as drawn.
Tests used:
[1] = test system: gastric injuries induced by acidic alcohol; experiment: Assay of gastric injuries induced by acidic alcohol (Robert); format: in vivo, rats; conditions: for ED50 / inhibition at 10 mg/kg: Rattus norvegicus, po, pretreatment 30 min; for ED50 / ED₅₀ p.o. (pretreatment: 30 min): haemorrhagic lesions after acidic alcohol, female rats; for ED50: read-out: ED₅₀ p.o. (pretreatment: 30 min); for inhibition at 10 mg/kg: read-out: % Inhibition at a dose of 10 mg/kg p.o. (pretreatment: 30 min)
Procedure: 1) Assay of gastric injuries induced by acidic alcohol [A. Robert, Gastroenterology, 77, 761-767 (1979)] Female rats weighing about 120 to 150 g fasted for 24 hours were used in this test. Test compounds suspended with Tween 80 were given orally to the animals through an intragastric tube. After a certain period (pretreatment time) acidic alcohol was given through the intragastric tube at a dose or 0.5 ml per 100 g of body weight. The animals were sacrificed after 1 hour, their stomach was removed and incised along the great curve. The length of the reddish-brown strips (haemorrhagic lesions) was measured and the mean total length per stomach was calculated. The biological activity of the test compounds was given compared to the control group.

[2] = test system: gastric acid secretion; experiment: Assay of the inhibition of gastric acid secretion by using pylorus ligature (Shay et al.); format: in vivo, Wistar rats; conditions: for inhibition at 10 mg/kg: read-out: % Inhibition in the amount of the acid at a dose of 10 mg/kg p.o. (pretreatment: 30 min)
Procedure: 3) Assay of the inhibition of gastric acid secretion -by using pylorus ligature
[Shay et al., Gastroenterology, 5, 43-61 (1945)]
Before ligating the pylorus the test compounds suspended with Tween were given orally at a volume of 0.5 ml per […] of body weight to female Wistar rats fasted previously for 20 hours. The animals were sacrificed 4 hours after the operation, and the amount of the acid in the stomach was measured by titration with 0.01N sodium hydroxide solution in the presence of phenolphtalein indicator. The pH value of the content of stomach was measured by using a pH-meter (Radelkis, Type OP-211/1).

[3] = test system: chronic ulcer model induced by acetic acid; experiment: Assay of a chronic ulcer model induced by acetic acid (Tagaki et al); format: in vivo, rats; conditions: from day 5 to day 10 after operation, sacrificed day 15
Procedure: 2)Assay of a chronic ulcer model induced by acetic acid
The assay was carried out in the following manner. Abdominal wall of femal rats previously fasted for 24 hours was incised under ether anaesthesia. A 20% solution of acetic acid (25 µl) was injected to the subserosus layer of the glandular part of the stomach near the pylorus. Thereafter the abdominal wall was closed and the animal was kept on normal diet, by providing feed and water ad libitum. The treatment was started 5 days after the operation and continued until the 10th day by administering the test compound once a day The animals were sacrificed 15 days after the operation and their stomach was removed. The extent of the ulcer was determined by measuring the diameter of the necrotic regions and calculating their total area. The curative effect of the tested compounds was calculated by the following formula in %: [formula]

[4] = test system: Campylobacter pylori; experiment: Activity against Campylobacter pylori by agar diffusion and agar dilution methods; format: cell-based; conditions: Helicobacter pylori; Campylobacter pylori cultures isolated from 5 different ulcerous patients; read-out: MIC (minimal inhibitory concentration)
Procedure: The activity of the compounds of formula (I) against Campylobacter pylori was investigated by agar diffusion and agar dilution methods. The experiments were carried out with Campylobacter pylori cultures isolated from 5 different ulcerous patients.

[5] = 10 mg/kg p.o., compared to the control group
[6] = Rattus norvegicus, po, 10 mg/kg p.o., pretreatment 30 min, acid titrated 4 hours after pylorus ligature

Row | Molecule | ED50 [1] | inhibition at 10 mg/kg [1, 5] | inhibition at 10 mg/kg [2, 6] | other results
1 | O=C(O)/C=C/Sc1ccccc1 [B, 3-phenylthio-2(E)-propenoic acid] | 31 mg/kg |  |  | 
2 | O=C(O)/C=C\[S+]([O-])c1ccccc1 (stereo not drawn) [C, 3-phenylsulfinyl-2(Z)-propenoic acid] |  | 56% | 15% | 
3 | O=C(O)/C=C/[S+]([O-])c1ccccc1 (stereo not drawn) [Compound D, 3-phenylsulfinyl-2(E)-propenoic acid] | 4.2 mg/kg | 64% | 22% | 
4 | O=C(O)/C=C\S(=O)(=O)c1ccccc1 [Compound E, 3-phenylsulfonyl-2(Z)-propenoic acid] |  | 13% |  | 
5 | O=C(O)/C=C/S(=O)(=O)c1ccccc1 [F, 3-phenylsulfonyl-2(E)-propenoic acid] |  |  |  | % Inhibition at a dose of 10 mg/kg p.o. (pretreatment: 30 min) [1, 5]: 86%; ED₅₀ p.o. (pretreatment: 30 min) [1]: 3.4 mg/kg; % Curative effect ([3]; 50 mg/kg p.o. once a day): 37%; % Inhibition in the amount of the acid at a dose of 10 mg/kg p.o. (pretreatment: 30 min) ([2]; 10 mg/kg p.o., acid titrated 4 hours after pylorus ligature): 48%; ED₅₀ p.o. (pretreatment: 30 min) ([2]; p.o., gastric acid secretion, pylorus ligature, 4 hours after operation): 12.0 mg/kg
6 | O=C(O)/C=C/Sc1ccccc1 [G, magnesium bis[3-phenylthio-2(E)-propenoate]] |  |  | 16% | 
7 | O=C(O)/C=C/S(=O)(=O)c1ccccc1 [H, magnesium bis[3-phenylsulfonyl-2(E)-propenoate]hydrate] | 3.2 mg/kg | 96% | 63% | % Curative effect ([3]; 30 mg/kg p.o. once a day): 27%; ED50 ([2]; Rattus norvegicus, po, pretreatment 30 min, gastric acid secretion, pylorus ligature, 4 hours after operation, read-out: ED₅₀ p.o. (pretreatment: 30 min)): 10 mg/kg
8 | COC(=O)/C=C/S(=O)(=O)c1ccccc1 [I, methyl 3-phenylsulfonyl-2(E)-propenoate] |  | 98% | 21% | MIC [4]: 250 to 270 µg/mL (≈ 1100 to 1190 µM); % Curative effect ([3]; 30 mg/kg p.o. once a day): 73%
9 | Sucralfat [reference compound] |  |  |  | ED₅₀ p.o. (pretreatment: 30 min) [1]: 150 mg/kg; % Curative effect ([3]; 500 mg/kg p.o. once a day): 55%
